Values of other authors in PMC5036423 (CPT: Pharmacometrics & Systems Pharmacology, 2016).

Experiments:
intact PTH = details: first-in-human phase I study
[1] = 4 weeks of 5 mg TIW i.v. dosing, patients on HD

## CC(=O)N[C@H](CSSC[C@H](N)C(=O)O)C(=O)N[C@H](C)C(=O)N[C@H](CCCNC(=N)N)C(=O)N[C@H](CCCNC(=N)N)C(=O)N[C@H](CCCNC(=N)N)C(=O)N[C@H](C)C(=O)N[C@H](CCCNC(=N)N)C(N)=O [etelcalcetide]
Intact PTH
  Effect on intact PTH in healthy subjects: showed intact PTH lowering effect
[1]
  Accumulation in Cmax: approximately twofold
  Accumulation in area under the curve over 48 hours: threefold
TIW i.v. administration in patients on HD
  Plasma exposure (Cmax and area under the curve over 48 hours) versus dose: increased proportionally with the dose
Patients receiving TIW hemodialysis
  Fraction of the drug eliminated by TIW HD: ~50%
